Experiment [1] deals with recombinant human FLAP protein (Homo sapiens (Human), UniProt P20292). Description: FLAP binding assay (Scintillation Proximity Assay, displacement of [125I]L-691,831). Conditions: read-out: FLAP SPA IC50. In short, it runs like this: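 Scintillation proximity displacement of an iodinated (125I) FLAP inhibitor by test compounds, using 100,000×g membrane fraction from lysed cells. Final beads 200 μg/well and protein 5 μg/well; plates shaken 2 h before reading.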

Experiment [2] concerns synthesis of LTB4 in human whole blood. The experiment is described as follows: Human whole blood LTB4 production inhibition assay. It is filed as cell-based. Conditions: calcimycin stimulated, read-out: hWB LTB4 IC50. In a few lines:
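Whole-blood cellular format, heparinized human donors: 15 min compound pretreatment, then 30 min calcimycin stimulation (20 μM final), both at 37° C. Low-speed centrifugation yields plasma, in which LTB4 is read by homogeneous time-resolved fluorescence immunoassay.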

pIC50: −log10 of the molar value.

For orientation: pIC50 means −log10 of the IC50, conventionally taken in molar units.

Sequence of recombinant human FLAP protein (P20292 whole entry): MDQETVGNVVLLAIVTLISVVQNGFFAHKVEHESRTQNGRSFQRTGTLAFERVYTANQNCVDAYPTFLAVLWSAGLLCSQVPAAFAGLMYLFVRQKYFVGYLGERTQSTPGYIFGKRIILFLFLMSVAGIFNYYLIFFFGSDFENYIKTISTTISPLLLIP

`Nc1ncc(-c2ccc(C3(c4noc(-c5cnn(CC(=O)NCC6CCCO6)c5)n4)CCC3)cn2)cn1` (stereo not drawn) [Example 156, 2-[4-(3-{1-[6-(2-amino-pyrimidin-5-yl)-pyridin-3-yl]-cyclobutyl}-[1,2,4]oxadiazol-5-yl)-pyrazol-1-yl]-N-(tetrahydro-furan-2-ylmethyl)-acetamide]: the pIC50 in experiment [1] is 7.01; in experiment [2] it was 6.21.
The corresponding values for `CN(C)C(=O)Cn1cc(-c2nc(C3(c4ccc(-c5cnc(N)nc5)nc4)CCC3)no2)cn1` [Example 59, 2-[4-(3-{1-[6-(2-amino-pyrimidin-5-yl)-pyridin-3-yl]-cyclobutyl}-1,2,4-oxadiazol-5-yl)-pyrazol-1-yl]-N,N-dimethyl-acetamide] are 7.08 and 6.21.
Taken in the same sequence, the figures for `Nc1ncc(-c2ccc(C3(c4noc(-c5ccc(NCC6(O)CC6)nc5)n4)CCC3)cn2)cn1` [Example 18, 1-({[5-(3-{1-[6-(2-aminopyrimidin-5-yl)pyridin-3-yl]cyclobutyl}-1,2,4-oxadiazol-5-yl)pyridin-2-yl]amino}methyl)cyclo-propanol] were 8.74 and 7.02.
Taken in the same sequence, the figures for `CCN(C)C(=O)Cn1cc(-c2nc(C3(c4ccc(-c5cnc(N)nc5)nc4)CCC3)no2)cn1` [Example 162, 2-[4-(3-{1-[6-(2-amino-pyrimidin-5-yl)-pyridin-3-yl]-cyclobutyl}-[1,2,4]oxadiazol-5-yl)-pyrazol-1-yl]-N-ethyl-N-methyl-acetamide] were 6.89 and 6.31.
Consider `COC(=O)[C@H]1CNCCN1c1ccc(-c2nc(C3(c4ccc(-c5cnc(N)nc5)nc4)CCC3)no2)cn1` [Example 38, methyl (2R)-1-[5-(3-{1-[6-(2-aminopyrimidin-5-yl)pyridin-3-yl]cyclobutyl}-1,2,4-oxadiazol-5-yl)pyridin-2-yl]piperazine-2-carboxylate], for which the negative-log IC50 (pIC50) in experiment [1] is 8.49; in experiment [2], 7.12.
The corresponding values for `Nc1ncc(-c2ccc(C3(c4noc(-c5ccncc5)n4)CCOCC3)nc2)cn1` [Example 138, 5-(6-{4-[5-(pyridin-4-yl)-1,2,4-oxadiazol-3-yl]tetrahydro-2H-pyran-4-yl}pyridin-3-yl)pyrimidin-2-amine] are 6.01 and under 5.30.
Taken in the same sequence, the figures for `Cc1nc(N)ncc1-c1ccc(C2(c3noc(-c4cnn(CC(C)(C)O)c4)n3)CCC2)cn1` [Example 175, 1-[4-(3-{1-[6-(2-Amino-4-methyl-pyrimidin-5-yl)-pyridin-3-yl]-cyclobutyl}-[1,2,4]oxadiazol-5-yl)-pyrazol-1-yl]-2-methyl-propan-2-ol] were 6.08 and 6.21.
Regarding `C[C@@H](O)CNc1ccc(-c2nc(C3(c4ccc(-c5cnc(N)nc5)nc4)CCC3)no2)cn1` [Example 44, (2R)-1-{[5-(3-{1-[6-(2-aminopyrimidin-5-yl)pyridin-3-yl]cyclobutyl}-1,2,4-oxadiazol-5-yl)pyridin-2-yl]amino}propan-2-ol], the pIC50 was 8.57 in experiment [1] and 7.00 in experiment [2].
In the case of `CC(C)(C(N)=O)n1cc(-c2nc(C3(c4ccc(-c5cnc(N)nc5)nc4)CCC3)no2)cn1` [Example 149, 2-[4-(3-{1-[6-(2-amino-pyrimidin-5-yl)-pyridin-3-yl]-cyclobutyl}-[1,2,4]oxadiazol-5-yl)-pyrazol-1-yl]-isobutyramide], the pIC50 in experiment [1] is 6.80; in experiment [2], 6.37.
The corresponding values for `Nc1ncc(-c2ccc(C3(c4noc(-c5cnn(C6CCS(=O)(=O)C6)c5)n4)CCC3)cn2)cn1` (stereo not drawn) [Example 139, 5-[5-(1-{5-[1-(1,1-dioxidotetrahydrothiophen-3-yl)-1H-pyrazol-4-yl]-1,2,4-oxadiazol-3-yl}cyclobutyl)pyridin-2-yl]pyrimidin-2-amine] are 7.55 and 6.47.
In the case of `COC(=O)[C@H]1CN(c2ccc(-c3nc(C4(c5ccc(-c6cnc(N)nc6)nc5)CCC4)no3)cn2)CCN1` [Example 40, methyl (2R)-4-[5-(3-{1-[6-(2-aminopyrimidin-5-yl)pyridin-3-yl]cyclobutyl}-1,2,4-oxadiazol-5-yl)pyridin-2-yl]piperazine-2-carboxylate], the figures for the pIC50 in experiment [1] and in experiment [2] were 8.48 and 7.04, respectively.
The corresponding values for `Cn1cc(-c2nc(C3(c4ccc(-c5cnc(N)cn5)nc4)CCC3)no2)cn1` [Example 174, 5-(5-{1-[5-(1-Methyl-1H-pyrazol-4-yl)-[1,2,4]oxadiazol-3-yl]-cyclobutyl}-pyridin-2-yl)-pyrazin-2-ylamine] are 7.41 and 7.13.
Taken in the same sequence, the figures for `CN(C)c1nc(C2(c3ccc(-c4cnc(N)nc4)nc3)CCC2)no1` [Example 15, 5-(5-{1-[5-(dimethylamino)-1,2,4-oxadiazol-3-yl]cyclobutyl}pyridin-2-yl)pyrimidin-2-amine] were 6.55 and 5.59.
On to `COC1CCN(C(=O)Cn2cc(-c3nc(C4(c5ccc(-c6cnc(N)nc6)nc5)CCC4)no3)cn2)C1` (stereo not drawn) [Example 161, 2-[4-(3-{1-[6-(2-amino-pyrimidin-5-yl)-pyridin-3-yl]-cyclobutyl}-[1,2,4]oxadiazol-5-yl)-pyrazol-1-yl]-1-(3-methoxy-pyrrolidin-1-yl)-ethanone], for which the negative-log IC50 (pIC50) in experiment [1] was 6.60; in experiment [2], 5.96.
The corresponding values for `Nc1ncc(-c2ccc(C3(c4noc(N5CCCC5)n4)CCC3)cn2)cn1` [Example 76, 5-(5-{1-[5-(pyrrolidin-1-yl)-1,2,4-oxadiazol-3-yl]cyclobutyl}pyridin-2-yl)pyrimidin-2-amine] are 7.04 and 6.04.
The corresponding values for `Nc1ncc(-c2ccc(C3(c4noc(-c5ccc(N6CCNC(=O)C6)nc5)n4)CCC3)cn2)cn1` [Example 125, 4-[5-(3-{1-[6-(2-aminopyrimidin-5-yl)pyridin-3-yl]cyclobutyl}-1,2,4-oxadiazol-5-yl)pyridin-2-yl]piperazin-2-one] are 8.74 and 6.80.
Consider `N#Cc1cc(-c2ccc(C3(c4noc(-c5cnn(C6COC6)c5)n4)CCC3)cn2)cnc1N` [Example 167, 6′-Amino-5-{1-[5-(1-oxetan-3-yl-1H-pyrazol-4-yl)-[1,2,4]oxadiazol-3-yl]-cyclobutyl}-[2,3′]bipyridinyl-5′-carbonitrile], for which the pIC50 was 6.85 in experiment [1] and 6.17 in experiment [2].
Taken in the same sequence, the figures for `Cc1cc(-c2nc(C3(c4ccc(-c5cnc(N)nc5)nc4)CCC3)no2)n(C)n1` [Example 121, 5-(5-{1-[5-(1,3-dimethyl-1H-pyrazol-5-yl)-1,2,4-oxadiazol-3-yl]cyclobutyl}pyridin-2-yl)pyrimidin-2-amine] were 7.55 and 5.74.
The corresponding values for `CC(C)(C)OC(=O)N1CCN(c2ccc(-c3nc(C4(c5ccc(-c6cnc(N)nc6)nc5)CCC4)no3)cn2)CC1` [Example 1, tert-butyl 4-[5-(3-{1-[6-(2-aminopyrimidin-5-yl)pyridin-3-yl]cyclobutyl}-1,2,4-oxadiazol-5-yl)pyridin-2-yl]piperazine-1-carboxylate] are 8.42 and 6.55.
The corresponding values for `Nc1ncc(-c2ccc(C3(c4noc(-c5ccc(OCCO)nc5)n4)CCC3)cn2)cn1` [Example 22, 2-{[5-(3-{1-[6-(2-aminopyrimidin-5-yl)pyridin-3-yl]cyclobutyl}-1,2,4-oxadiazol-5-yl)pyridin-2-yl]oxy}ethanol] are 8.60 and 6.85.
On to `Nc1ncc(-c2ccc(C3(c4noc(-c5ccc(NCCO)nc5)n4)CCC3)cn2)cn1` [Example 115, 2-{[5-(3-{1-[6-(2-aminopyrimidin-5-yl)pyridin-3-yl]cyclobutyl}-1,2,4-oxadiazol-5-yl)pyridin-2-yl]amino}ethanol], for which the pIC50 in experiment [1] was 8.72; in experiment [2], 7.31.
For `Nc1ncc(-c2ccc(C3(c4noc(-c5ccc(-n6ccnc6)nc5)n4)CCC3)cn2)cn1` [Example 31, 5-[5-(1-{5-[6-(1H-imidazol-1-yl)pyridin-3-yl]-1,2,4-oxadiazol-3-yl}cyclobutyl)pyridin-2-yl]pyrimidin-2-amine], the values for the pIC50 in experiment [1] and in experiment [2] were 8.72 and 6.52, respectively.
Regarding `COCCN(C)c1ccc(-c2nc(C3(c4ccc(-c5cnc(N)nc5)nc4)CCC3)no2)cn1` [Example 117, 5-{5-[1-(5-{6-[(2-methoxyethyl)(methyl)amino]pyridin-3-yl}-1,2,4-oxadiazol-3-yl)cyclobutyl]pyridin-2-yl}pyrimidin-2-amine], the results for the pIC50 in experiment [1] and in experiment [2] were 8.52 and 6.92, respectively.
Regarding `CN(C)C(=O)Cn1cc(-c2nc(C3(c4ccc(-c5cnc(N)cn5)nc4)CCC3)no2)cn1` [Example 164, 2-[4-(3-{1-[6-(5-amino-pyrazin-2-yl)-pyridin-3-yl]-cyclobutyl}-[1,2,4]oxadiazol-5-yl)-pyrazol-1-yl]-N,N-dimethyl-acetamide], the negative logarithm of the IC50 (pIC50) in experiment [1] was 7.37; in experiment [2] it was 6.77.
For the compound `Nc1ncc(-c2ccc(C3(c4noc(-c5ccc6nccn6c5)n4)CCC3)cn2)cn1` [Example 27, 5-(5-{1-[5-(imidazo[1,2-a]pyridin-6-yl)-1,2,4-oxadiazol-3-yl]cyclobutyl}pyridin-2-yl)pyrimidin-2-amine], the pIC50 in experiment [1] is 7.91; in experiment [2], 6.38.
Regarding `Nc1ncc(-c2ccc(C3(c4noc(-c5cncs5)n4)CCC3)cn2)cn1` [Example 123, 5-(5-{1-[5-(1,3-thiazol-5-yl)-1,2,4-oxadiazol-3-yl]cyclobutyl}pyridin-2-yl)pyrimidin-2-amine], the pIC50 in experiment [1] is 7.51; in experiment [2], 6.10.
Regarding `Cn1cnc(-c2nc(C3(c4ccc(-c5cnc(N)nc5)nc4)CCC3)no2)c1` [Example 131, 5-(5-{1-[5-(1-methyl-1H-imidazol-4-yl)-1,2,4-oxadiazol-3-yl]cyclobutyl}pyridin-2-yl)pyrimidin-2-amine], the results for the pIC50 in experiment [1] and in experiment [2] were 7.28 and 6.52, respectively.

(Values after US8575201B2 (Boehringer Ingelheim International GmbH, priority 2010, dated 2013).)
